PMC10907494, “Applications of biaryl cyclization in the synthesis of cyclic enkephalin analogs with a highly restricted flexibility” (Amino Acids, 2024)
Marks after values point to notes of the source that are not given here.

Biological target: μ-opioid receptor (MOR) (Rattus norvegicus, UniProt P33535)
Test: biochemical
Details: for Radioligand SB at 30 μM of ligand (% of radioligand specific binding): mean and standard deviation; for % of radioligand specific binding at 3 μM, mean / % of radioligand specific binding at 10 μM, mean / % of radioligand specific binding at 30 μM, mean: initial screening; for MOR binding, times weaker than that of the linear counterpart: ratio of IC50 values, cyclic analog vs its linear counterpart
Procedure: The binding affinity of cyclic and linear enkephalin analogs for μ-opioid receptor (MOR) was determined in competitive radioligand binding assays using membrane preparations from rat brain homogenates. The homogenates were obtained as described previously (Matalińska et al. [2020]). The membrane preparations were incubated at 25 °C for 60 min in the presence of 1.0 nM [^3H]DAMGO (obtained from PerkinElmer, USA) and the set of concentrations of the assayed compound proper for a particular compound and type of determination (screening or a full-displacement curve).
For screening purposes, we performed the experiments with the following concentrations of the compounds tested: 30 μM, 10 μM, and 3 μM. For full-displacement curves, 10 concentrations ranging either from 0.03 nM to 1 μM or from 300 nM to 30 μM were used. The range was chosen for the single compounds in a manner such that the expected IC50 would fall in the middle of the range. In the case of several experiments, only five concentrations were used (they are marked in the results table).
Non-specific binding was measured in the presence of 10 μM naloxone. The assays were conducted with the assay buffer made of 50 mM Tris–HCl (pH 7.4), bacitracin (100 μg/ml), bestatin (30 μM), and captopril (10 μM), phenylmethylsulfonyl fluoride (PMSF, 30 μg/ml) in a total volume of 0.5 ml. After the incubation, a rapid filtration with a M-24 Cell Harvester (Brandel/USA) through GF/B Whatman glass fiber strips was conducted. The filters were soaked with 0.5% PEI just before the harvesting so as to minimize the extent of non-specific binding. Filter disks were cut from the sheet and placed separately in 24-well plates. The Optiphase Supermix scintillation solution (Perkin Elmer, USA) was added to each well. Radioactivity was measured in a scintillation counter MicroBeta LS, Trilux (PerkinElmer, USA). Displacement curves were drawn and the mean IC50 values were determined with SEMs (GraphPad Prism v. 5.0, San Diego, CA).

[1] = IC50 ± S.E.M., full-displacement curves, 1.0 nM [3H]DAMGO, rat brain membranes, 25 °C, 60 min, mean of 2 or 3 experiments unless footnoted
[2] = IC50 (estimation based on the screening results), estimated from screening at 30 μM, 10 μM and 3 μM, [3H]DAMGO, rat brain membranes
[3] = estimated IC50, estimated from initial screening at 30, 10 and 3 μM

Sequence of μ-opioid receptor (MOR) (P33535 whole entry): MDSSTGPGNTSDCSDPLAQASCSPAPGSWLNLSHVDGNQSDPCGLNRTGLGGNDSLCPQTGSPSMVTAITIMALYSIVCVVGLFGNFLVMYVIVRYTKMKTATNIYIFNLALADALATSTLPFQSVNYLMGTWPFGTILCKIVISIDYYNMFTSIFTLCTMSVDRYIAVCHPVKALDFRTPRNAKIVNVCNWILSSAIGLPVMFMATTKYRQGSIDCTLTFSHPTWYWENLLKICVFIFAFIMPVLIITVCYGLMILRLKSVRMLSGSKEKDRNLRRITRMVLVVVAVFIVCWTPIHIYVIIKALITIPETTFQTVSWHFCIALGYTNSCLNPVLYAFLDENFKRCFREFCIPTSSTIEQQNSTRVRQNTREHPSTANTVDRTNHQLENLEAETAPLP

Row | Compound | Radioligand SB at 30 μM of ligand (% of radioligand specific binding) ([3H]DAMGO) | IC50 [1] | % of radioligand specific binding at 3 μM, mean | % of radioligand specific binding at 10 μM, mean | % of radioligand specific binding at 30 μM, mean | MOR binding, times weaker than that of the linear counterpart | IC50 [2] | MOR binding reduced, times, compared to the parent [Leu^5]enk-NH2 (ratio of IC50 values vs [Leu^5]enk-NH2) | IC50 [3]
1 | CC(C)C[C@H](NC(=O)[C@@H]1Cc2cccc(c2)-c2cc(ccc2O)C[C@H](N)C(=O)NCC(=O)NCC(=O)N1)C(N)=O [c-(Tyr-m-Phe-m)-L-NH2, H-(cyclo-m,m)-[Tyr-Gly-Gly-Phe]-Leu-NH2] | 12 ± 3% | 3.08 µM | 64% | 28% | 12% | ~500 times | – | – | –
2 | CC(C)C[C@H](NC(=O)[C@@H]1Cc2ccc(O)c(c2)-c2cc(ccc2O)C[C@H](N)C(=O)NCC(=O)NCC(=O)N1)C(N)=O [c-(Tyr-m-Tyr-m)-L-NH2, H-(cyclo-m,m)-[Tyr-Gly-Gly-Tyr]-Leu-NH2] | 117 ± 1% | – | 87% | 102% | 117% | – | > 30 µM | – | –
3 | CC(C)C[C@H](NC(=O)[C@@H]1Cc2ccc(cc2)-c2ccc(cc2)C[C@H](N)C(=O)NCC(=O)NCC(=O)N1)C(N)=O [c-(Phe-p-Phe-p)-L-NH2, H-(cyclo-p,p)-[Phe-Gly-Gly-Phe]-Leu-NH2] | 73 ± 19% | – | 110% | 78% | 73% | – | > 30 µM | – | –
4 | H-YGGYL-NH2 [[Tyr^4,Leu^5]enk-NH2, H-Tyr-Gly-Gly-Tyr-Leu-NH2, reference compound] | – | 0.222 ± 0.0159 µM | – | – | – | – | – | about 40 times | –
5 | H-(cyclo-m,p)-[Tyr-Gly-Gly-Phe]-Leu-OH [c-(Tyr-m-Phe-p)-L-OH] | 36 ± 6% | – | 88% | 60% | 36% | – | – | – | –
6 | CC(C)C[C@H](NC(=O)[C@@H]1Cc2ccc(cc2)-c2cc(ccc2O)C[C@H](N)C(=O)NCC(=O)NCC(=O)N1)C(N)=O [c-(Tyr-m-Phe-p)-L-NH2, H-(cyclo-m,p)-[Tyr-Gly-Gly-Phe]-Leu-NH2] | 77 ± 4% | – | 99% | 78% | 77% | – | > 30 µM | – | –
7 | H-Phe-Gly-Gly-Tyr-Leu-NH2 (H-FGGYL-NH2) [[Phe^1,Tyr^4,Leu^5]enk-NH2, reference compound] | 43 ± 11% | – | 85% | 61% | 43% | – | – | – | –
8 | H-FGGFL-NH2 [[Phe^1,Leu^5]enk-NH2, H-Phe-Gly-Gly-Phe-Leu-NH2, reference compound] | 5 ± 1% | 0.596 ± 0.0488 µM | 26^c) % | 13^c) % | 5^c) % | – | – | – | < 3 µM
9 | CC(C)C[C@H](NC(=O)[C@@H]1Cc2ccc(O)c(c2)-c2ccc(cc2)C[C@H](N)C(=O)NCC(=O)NCC(=O)N1)C(N)=O [c-(Phe-p-Tyr-m)-L-NH2, H-(cyclo-p,m)-[Phe-Gly-Gly-Tyr]-Leu-NH2] | 17 ± 3% | 6.67 ± 0.262 µM | 62^c) % | 34^c) % | 17^c) % | – | – | – | –
10 | CSCC[C@H](NC(=O)[C@@H]1Cc2ccc(cc2)-c2cc(ccc2O)C[C@H](N)C(=O)NCC(=O)NCC(=O)N1)C(N)=O [c-(Tyr-m-Phe-p)-M-NH2, H-(cyclo-m,p)-[Tyr-Gly-Gly-Phe]-Met-NH2] | 12 ± 4% | 1.37 ± 0.266 µM | 49% | 34% | 12% | ~500 times | – | – | ~1 µM
